The assay can be described thus: Cytotoxicity against human KB-3-1 cells assessed as cell survival at 0.5 uM after 72 hrs by MTT assay relative to control. Conditions: KB 3-1, 72 h. A general note: Tetrazolium dyes change colour on reduction, which living cells bring about.

As for `CCCCC/C=C\C/C=C\CCCCCCCC(=O)Oc1cc(C(=O)c2cc(OC)c(OC)c(OC)c2)ccc1OC`, the cell survival at 0.5 µM turned out to be 20%.

(Values after ChEMBL document CHEMBL2434821, “New phenstatin-fatty acid conjugates: synthesis and evaluation” (Bioorg Med Chem Lett, 2013).)
